No end group written: not given here.

Data set [1] relates to isolated rat heart. The data set is described as follows: Modified BNPsp peptides, preconditioning in isolated rat heart (Example 6: 40 min global ischemia, 90 min reperfusion). The settings on record: preconditioned 30 minutes with 0.3 nmol/L; n=3. On the procedure:
This set of experiments assessed modified BNPsp(17-26) peptides. This experiment repeated the preconditioning work outlined in the isolated rat heart model Examples, but with C-terminal ablated and an N-terminal extended version of BNPsp(17-26). Hearts were preconditioned with 30 minute doses of 0.3 nmol/L BNPsp(16-26) and BNPsp(17-24) prior to 40 minutes of global ischemia and 90 minutes reperfusion. Cardiac contractile and perfusion pressure indices were recorded.

The subject of data set [2] is normal, healthy sheep. The following applies: in vivo. The text has this: Such a response is indicative of a well tolerated agent. […] This is a favourable profile in normal health.
Data set [3] is described as follows: in vivo. The following applies: sheep, iv. How it is done:
In this set of experiments, four normal healthy sheep were infused with human BNPsp(17-26) at 100-1000 ug/kg·min−1 to document any effects upon normal blood pressure, heart rate or renal function. This experiment was carried out to determine achieved circulating levels of BNPsp(17-26) in response to the dose given and to document any significant effects upon haemodynamic, renal or hormonal indices.

Regarding “LHLAFLGG (listed as Homo sapiens) [BNPsp(17-24), modified peptide with two C-terminal amino acids removed]”, the “haemodynamic protective profile (developed pressure)” value in data set [1] is “protective effect”.

In general, half-life refers to the time needed for the level to fall by half in the phase considered. Read a high half-life as slow loss. As to LHLAFLGGRS [BNPsp(17-26), LHLAFLGGRS], the “haemodynamics, renal function or circulating biomarkers” value in data set [2] is “no detectable changes”. This sequence also displayed a half-life in data set [3] of under 1 min.
